Results from patent US6706663B2, “Herbicidal 3-heterocyclic substituted benzisothiazole and benzisoxazole compounds” (Wyeth, priority 2000, dated 2004).

How the values were obtained:
[1] = system: ABUTH (Abutilon theophrasti); assay: Postemergence herbicidal evaluation; type: in vivo, Medic.
Procedure, shortened: (§1)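 Visual 0–9 injury scores versus control plants, covering stand, vigour, malformation, size, chlorosis and general appearance, taken four to five weeks post-spray and averaged over replicate tests. Plants were sprayed at roughly two weeks old and held on greenhouse benches.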

[2] = system: AMBEL (Ambrosia artemisifolia); assay: Postemergence herbicidal evaluation; type: in vivo, L.
Procedure, shortened: as §1

[3] = system: CASOB (Cassia obtusifolia); assay: Postemergence herbicidal evaluation; type: in vivo, L.
Procedure, shortened: as §1

[4] = system: CHEAL (Chenopodium album); assay: Postemergence herbicidal evaluation; type: in vivo, L.
Procedure, shortened: as §1

[5] = system: GALAP (Galium aparine); assay: Postemergence herbicidal evaluation; type: in vivo
Procedure, shortened: as §1

[6] = system: IPOHE (Ipomoea hederacea); assay: Postemergence herbicidal evaluation; type: in vivo, (L.) Jacq.
Procedure, shortened: as §1

[7] = system: SETVI (Setaria viridis); assay: Postemergence herbicidal evaluation; type: in vivo, (L.) Beau
Procedure, shortened: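 Visual injury score (0-9: stand, vigor, malformation, size, chlorosis, overall appearance vs untreated control) taken four to five weeks post-spray. Two-week-old seedlings received about 0.0040 to 1.000 kg/ha active compound in acetone/water with 0.5% TWEEN 20.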

[8] = system: ORYSAT (Rice, Tebonnet); assay: Postemergence herbicidal evaluation; type: in vivo, Oryza sativa, (L.) Tebonnet
Procedure, shortened: as §1

[9] = system: TRZAWR (Wheat, Winter, cv Riband); assay: Postemergence herbicidal evaluation; type: in vivo, Triticum aestivum
Procedure, shortened: as §1

[10] = system: AMBEL (Ambrosia artemisifolia); assay: Preemergence herbicidal evaluation; type: in vivo, L.; settings: preemergence, rated 4-5 weeks after treatment
Procedure, shortened: (§2)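 Steps: mix seeds with potting soil; plant on ~1 inch soil per cup; spray compound in aqueous acetone; hold on greenhouse benches with routine watering; rate 0–9 visually against control at 4–5 weeks.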

[11] = system: CASOB (Cassia obtusifolia); assay: Preemergence herbicidal evaluation; type: in vivo, L.; settings: preemergence, rated 4-5 weeks after treatment
Procedure, shortened: as §2

[12] = system: CHEAL (Chenopodium album); assay: Preemergence herbicidal evaluation; type: in vivo, L.; settings: preemergence, rated 4-5 weeks after treatment
Procedure, shortened: as §2

[13] = system: GALAP (Galium aparine); assay: Preemergence herbicidal evaluation; type: in vivo; settings: preemergence, rated 4-5 weeks after treatment
Procedure, shortened: as §2

[14] = system: ECHCG (Echinochloa crus-galli); assay: Preemergence herbicidal evaluation; type: in vivo, (L.) Beau; settings: preemergence, rated 4-5 weeks after treatment
Procedure, shortened: as §2

[15] = system: SETVI (Setaria viridis); assay: Preemergence herbicidal evaluation; type: in vivo, (L.) Beau; settings: preemergence, rated 4-5 weeks after treatment
Procedure, shortened: as §2

[16] = system: ORYSAT (Rice, Tebonnet); assay: Preemergence herbicidal evaluation; type: in vivo, Oryza sativa, (L.) Tebonnet; settings: preemergence, rated 4-5 weeks after treatment
[17] = system: CYPIR (Cyperus iria); assay: Flooded paddy, preemergence weed control; type: in vivo; settings: rated 3-4 weeks after treatment, 0-9 rating scale
Procedure, shortened: (§3)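 Visual 0–9 ratings versus controls scored stand, vigor, malformation, size, chlorosis and overall appearance. Plants grew from seeds or propagating organs sown 0.5 cm deep in silt loam, with water held 1.5–3 cm above the soil for the whole test under greenhouse care.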

[18] = system: CYPSE (Cyperus serotinus); assay: Flooded paddy, preemergence weed control; type: in vivo, Rottb.; settings: rated 3-4 weeks after treatment, 0-9 rating scale
Procedure, shortened: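 Herbicidal effect was scored visually on a 0–9 scale against an untreated control 3–4 weeks after treatment. Compounds were applied preemergence as 50/50 v/v aqueous/acetone mixtures into flood water (1.5–3 cm deep over silt loam), at roughly 0.0080 to 0.1250 kg/ha active ingredient.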

[19] = system: MOOVA (Monochoria vaginalis); assay: Flooded paddy, preemergence weed control; type: in vivo, Presl.; settings: rated 3-4 weeks after treatment, 0-9 rating scale
Procedure, shortened: as §3

[20] = system: SAGPY (Sagittaria pygmaea); assay: Flooded paddy, preemergence weed control; type: in vivo, L.; settings: rated 3-4 weeks after treatment, 0-9 rating scale
Procedure, shortened: as §3

SMILES: CC(=O)N1CCSC1c1nsc2ccc(-n3c(=O)cc(C(F)(F)F)n(C)c3=O)cc12 (stereo not shown) [Compound 29, 3-acetyl-2-[5-[3,6-dihydro-3-methyl-2,6-dioxo-4-(trifluoromethyl)-1(2H)-pyrimidinyl]-1,2-benzisothiazol-3-yl]thiazolidine]
- Postemergence herbicidal rating, ABUTH ([1]; rate 0.0320 kg/ha): 9.0
- Postemergence herbicidal rating, ABUTH ([1]; rate 0.0620 kg/ha): 9.0
- Postemergence herbicidal rating, AMBEL ([2]; rate 0.0320 kg/ha): 9.0
- Postemergence herbicidal rating, AMBEL ([2]; rate 0.0620 kg/ha): 9.0
- Postemergence herbicidal rating, CASOB ([3]; rate 0.0320 kg/ha): 2.0
- Postemergence herbicidal rating, CASOB ([3]; rate 0.0620 kg/ha): 5.0
- Postemergence herbicidal rating, CHEAL ([4]; rate 0.0320 kg/ha): 9.0
- Postemergence herbicidal rating, CHEAL ([4]; rate 0.0620 kg/ha): 9.0
- Postemergence herbicidal rating, GALAP ([5]; rate 0.0320 kg/ha): 4.0
- Postemergence herbicidal rating, GALAP ([5]; rate 0.0620 kg/ha): 6.0
- Postemergence herbicidal rating, IPOHE ([6]; rate 0.0320 kg/ha): 9.0
- Postemergence herbicidal rating, IPOHE ([6]; rate 0.0620 kg/ha): 9.0
- Postemergence herbicidal rating, SETVI ([7]; rate 0.0320 kg/ha): 0.0
- Postemergence herbicidal rating, SETVI ([7]; rate 0.0620 kg/ha): 5.0
- Postemergence herbicidal rating, ORYSAT ([8]; rate 0.0320 kg/ha): 3.0
- Postemergence herbicidal rating, ORYSAT ([8]; rate 0.0620 kg/ha): 3.0
- Postemergence herbicidal rating, TRZAWR ([9]; rate 0.0320 kg/ha): 4.5
- Postemergence herbicidal rating, TRZAWR ([9]; rate 0.0620 kg/ha): 4.5
- AMBEL preemergence herbicidal rating ([10]; Rate 0.0620 kg/ha): 7.0
- AMBEL preemergence herbicidal rating ([10]; Rate 0.1250 kg/ha): 8.0
- AMBEL preemergence herbicidal rating ([10]; Rate 0.2500 kg/ha): 9.0
- CASOB preemergence herbicidal rating ([11]; Rate 0.0620 kg/ha): 3.5
- CASOB preemergence herbicidal rating ([11]; Rate 0.1250 kg/ha): 6.5
- CASOB preemergence herbicidal rating ([11]; Rate 0.2500 kg/ha): 8.0
- CHEAL preemergence herbicidal rating ([12]; Rate 0.0620 kg/ha): 9.0
- CHEAL preemergence herbicidal rating ([12]; Rate 0.1250 kg/ha): 9.0
- CHEAL preemergence herbicidal rating ([12]; Rate 0.2500 kg/ha): 9.0
- GALAP preemergence herbicidal rating ([13]; Rate 0.0620 kg/ha): 3.0
- GALAP preemergence herbicidal rating ([13]; Rate 0.1250 kg/ha): 7.0
- GALAP preemergence herbicidal rating ([13]; Rate 0.2500 kg/ha): 9.0
- ECHCG preemergence herbicidal rating ([14]; Rate 0.0620 kg/ha): 5.5
- ECHCG preemergence herbicidal rating ([14]; Rate 0.1250 kg/ha): 6.5
- ECHCG preemergence herbicidal rating ([14]; Rate 0.2500 kg/ha): 8.0
- SETVI preemergence herbicidal rating ([15]; Rate 0.0620 kg/ha): 6.5
- SETVI preemergence herbicidal rating ([15]; Rate 0.1250 kg/ha): 7.5
- SETVI preemergence herbicidal rating ([15]; Rate 0.2500 kg/ha): 9.0
- ORYSAT preemergence herbicidal rating ([16]; Rate 0.0620 kg/ha): 4.0
- ORYSAT preemergence herbicidal rating ([16]; Rate 0.1250 kg/ha): 5.0
- ORYSAT preemergence herbicidal rating ([16]; Rate 0.2500 kg/ha): 6.5
- herbicidal rating, CYPIR ([17]; rate 0.0080 kg/ha): 0.0
- herbicidal rating, CYPIR ([17]; rate 0.0320 kg/ha): 7.0
- herbicidal rating, CYPIR ([17]; rate 0.1250 kg/ha): 9.0
- herbicidal rating, CYPSE ([18]; rate 0.0320 kg/ha): 0.0
- herbicidal rating, CYPSE ([18]; rate 0.1250 kg/ha): 6.0
- herbicidal rating, MOOVA ([19]; rate 0.0080 kg/ha): 0.0
- herbicidal rating, MOOVA ([19]; rate 0.0320 kg/ha): 9.0
- herbicidal rating, MOOVA ([19]; rate 0.1250 kg/ha): 9.0
- herbicidal rating, SAGPY ([20]; rate 0.0080 kg/ha): 0.0
- herbicidal rating, SAGPY ([20]; rate 0.0320 kg/ha): 3.5
- herbicidal rating, SAGPY ([20]; rate 0.1250 kg/ha): 9.0

SMILES: Cn1c(C(F)(F)F)cc(=O)n(-c2ccc3snc(C4SCCN4C(=O)c4ccccc4)c3c2)c1=O (stereo not shown) [Compound 30, 3-benzoyl-2-[5-[3,6-dihydro-3-methyl-2,6-dioxo-4-(trifluoromethyl)-1(2H)-pyrimidinyl]-1,2-benzisothiazol-3-yl]thiazolidine]
- Postemergence herbicidal rating, ABUTH ([1]; rate 0.0320 kg/ha): 9.0
- Postemergence herbicidal rating, ABUTH ([1]; rate 0.0620 kg/ha): 9.0
- Postemergence herbicidal rating, AMBEL ([2]; rate 0.0320 kg/ha): 4.0
- Postemergence herbicidal rating, AMBEL ([2]; rate 0.0620 kg/ha): 9.0
- Postemergence herbicidal rating, CASOB ([3]; rate 0.0320 kg/ha): 0.0
- Postemergence herbicidal rating, CASOB ([3]; rate 0.0620 kg/ha): 2.0
- Postemergence herbicidal rating, CHEAL ([4]; rate 0.0320 kg/ha): 4.0
- Postemergence herbicidal rating, CHEAL ([4]; rate 0.0620 kg/ha): 9.0
- Postemergence herbicidal rating, GALAP ([5]; rate 0.0320 kg/ha): 1.0
- Postemergence herbicidal rating, GALAP ([5]; rate 0.0620 kg/ha): 3.0
- Postemergence herbicidal rating, IPOHE ([6]; rate 0.0320 kg/ha): 7.0
- Postemergence herbicidal rating, IPOHE ([6]; rate 0.0620 kg/ha): 9.0
- Postemergence herbicidal rating, SETVI ([7]; rate 0.0320 kg/ha): 0.0
- Postemergence herbicidal rating, SETVI ([7]; rate 0.0620 kg/ha): 4.0
- Postemergence herbicidal rating, ORYSAT ([8]; rate 0.0320 kg/ha): 2.0
- Postemergence herbicidal rating, ORYSAT ([8]; rate 0.0620 kg/ha): 3.0
- Postemergence herbicidal rating, TRZAWR ([9]; rate 0.0320 kg/ha): 4.5
- Postemergence herbicidal rating, TRZAWR ([9]; rate 0.0620 kg/ha): 4.5
- AMBEL preemergence herbicidal rating ([10]; Rate 0.0620 kg/ha): 4.5
- AMBEL preemergence herbicidal rating ([10]; Rate 0.1250 kg/ha): 7.5
- AMBEL preemergence herbicidal rating ([10]; Rate 0.2500 kg/ha): 9.0
- CASOB preemergence herbicidal rating ([11]; Rate 0.0620 kg/ha): 0.0
- CASOB preemergence herbicidal rating ([11]; Rate 0.1250 kg/ha): 1.5
- CASOB preemergence herbicidal rating ([11]; Rate 0.2500 kg/ha): 3.0
- CHEAL preemergence herbicidal rating ([12]; Rate 0.0620 kg/ha): 9.0
- CHEAL preemergence herbicidal rating ([12]; Rate 0.1250 kg/ha): 9.0
- CHEAL preemergence herbicidal rating ([12]; Rate 0.2500 kg/ha): 9.0
- GALAP preemergence herbicidal rating ([13]; Rate 0.0620 kg/ha): 0.0
- GALAP preemergence herbicidal rating ([13]; Rate 0.1250 kg/ha): 7.0
- GALAP preemergence herbicidal rating ([13]; Rate 0.2500 kg/ha): 9.0
- ECHCG preemergence herbicidal rating ([14]; Rate 0.0620 kg/ha): 0.0
- ECHCG preemergence herbicidal rating ([14]; Rate 0.1250 kg/ha): 4.0
- ECHCG preemergence herbicidal rating ([14]; Rate 0.2500 kg/ha): 5.0
- SETVI preemergence herbicidal rating ([15]; Rate 0.0620 kg/ha): 1.0
- SETVI preemergence herbicidal rating ([15]; Rate 0.1250 kg/ha): 8.0
- SETVI preemergence herbicidal rating ([15]; Rate 0.2500 kg/ha): 9.0
- ORYSAT preemergence herbicidal rating ([16]; Rate 0.0620 kg/ha): 0.0
- ORYSAT preemergence herbicidal rating ([16]; Rate 0.1250 kg/ha): 0.0
- ORYSAT preemergence herbicidal rating ([16]; Rate 0.2500 kg/ha): 1.0
- herbicidal rating, CYPIR ([17]; rate 0.0080 kg/ha): 0.0
- herbicidal rating, CYPIR ([17]; rate 0.0320 kg/ha): 7.0
- herbicidal rating, CYPIR ([17]; rate 0.1250 kg/ha): 9.0
- herbicidal rating, CYPSE ([18]; rate 0.0320 kg/ha): 0.0
- herbicidal rating, CYPSE ([18]; rate 0.1250 kg/ha): 3.0
- herbicidal rating, MOOVA ([19]; rate 0.0080 kg/ha): 0.0
- herbicidal rating, MOOVA ([19]; rate 0.0320 kg/ha): 8.5
- herbicidal rating, MOOVA ([19]; rate 0.1250 kg/ha): 9.0
- herbicidal rating, SAGPY ([20]; rate 0.0080 kg/ha): 0.0
- herbicidal rating, SAGPY ([20]; rate 0.0320 kg/ha): 1.0
- herbicidal rating, SAGPY ([20]; rate 0.1250 kg/ha): 6.0
